Legend:
[1] = tested on: U-937; experiment: Induction of apoptosis in human U-937 cells assessed as early apoptotic cells at 0.015 uM measured after 48 hrs by annexinV/FITC-propidium iodide staining based flow cytometry (reference value: 1.78 to 1.88 %); assay type: functional
[2] = tested on: DU-145; experiment: Cytotoxicity against human DU-145 cells assessed as reduction in cell viability measured after 72 hrs by CCK8 assay; assay type: functional, cell-based
[3] = tested on: HL-60; experiment: Cytotoxicity against human HL-60 cells assessed as reduction in cell viability measured after 72 hrs by CCK8 assay; assay type: functional, cell-based
[4] = tested on: U-937; experiment: Induction of apoptosis in human U-937 cells assessed as late apoptotic cells at 0.015 uM measured after 48 hrs by annexinV/FITC-propidium iodide staining based flow cytometry (reference value: 3.27 to 3.41 %); assay type: functional
[5] = tested on: U-937; experiment: Induction of apoptosis in human U-937 cells assessed as apoptotic ratio at 0.015 uM measured after 24 hrs by annexinV/FITC-propidium iodide staining based flow cytometry (reference value: 3.7 +/- 0.3 %); assay type: functional
[6] = tested on: HT-29; experiment: Cytotoxicity against human HT-29 cells assessed as reduction in cell viability measured after 72 hrs by CCK8 assay; assay type: functional, cell-based
[7] = tested on: K562; experiment: Cytotoxicity against human K562 cells assessed as reduction in cell viability measured after 72 hrs by CCK8 assay; assay type: functional, cell-based
[8] = tested on: MCF7; experiment: Cytotoxicity against human MCF7 cells assessed as reduction in cell viability measured after 72 hrs by CCK8 assay; assay type: functional, cell-based
[9] = tested on: U-937; experiment: Induction of apoptosis in human U-937 cells assessed as viable cells at 0.015 uM measured after 24 hrs by annexinV/FITC-propidium iodide staining based flow cytometry (reference value: 95 to 95.1 %); assay type: functional; settings: read-out: Activity
[10] = tested on: U-937; experiment: Induction of apoptosis in human U-937 cells assessed as viable cells at 0.015 uM measured after 48 hrs by annexinV/FITC-propidium iodide staining based flow cytometry (reference value: 93.7 to 94.2 %); assay type: functional; settings: read-out: Activity
[11] = tested on: U-937; experiment: Cytotoxicity against human U-937 cells assessed as reduction in cell viability measured after 72 hrs by CCK8 assay; assay type: functional, cell-based
[12] = tested on: HeLa; experiment: Cytotoxicity against human HeLa cells assessed as reduction in cell viability measured after 72 hrs by CCK8 assay; assay type: functional, cell-based
[13] = tested on: U-937; experiment: Induction of apoptosis in human U-937 cells assessed as necrotic cells at 0.015 uM measured after 48 hrs by annexinV/FITC-propidium iodide staining based flow cytometry (reference value: 0.794 to 0.955 %); assay type: functional
[14] = tested on: U-937; experiment: Induction of apoptosis in human U-937 cells assessed as apoptotic ratio at 0.015 uM measured after 48 hrs by annexinV/FITC-propidium iodide staining based flow cytometry (reference value: 5.2 +/- 0.2 %); assay type: functional
[15] = tested on: U-937; experiment: Induction of apoptosis in human U-937 cells assessed as early apoptotic cells at 0.015 uM measured after 24 hrs by annexinV/FITC-propidium iodide staining based flow cytometry (reference value: 1.28 to 1.68 %); assay type: functional
[16] = tested on: U-937; experiment: Induction of apoptosis in human U-937 cells assessed as late apoptotic cells at 0.015 uM measured after 24 hrs by annexinV/FITC-propidium iodide staining based flow cytometry (reference value: 2.18 to 2.22 %); assay type: functional
[17] = tested on: A549; experiment: Cytotoxicity against human A549 cells assessed as reduction in cell viability measured after 72 hrs by CCK8 assay; assay type: functional, cell-based
[18] = tested on: U-937; experiment: Induction of apoptosis in human U-937 cells assessed as necrotic cells at 0.015 uM measured after 24 hrs by annexinV/FITC-propidium iodide staining based flow cytometry (reference value: 1.12 to 1.48 %); assay type: functional
[19] = Homo sapiens, DU-145, 72 h, read-out: IC50
[20] = Homo sapiens, HL-60, 72 h, read-out: IC50
[21] = Homo sapiens, HT-29, 72 h, read-out: IC50
[22] = Homo sapiens, K562, 72 h, read-out: IC50
[23] = Homo sapiens, MCF7, 72 h, read-out: IC50
[24] = Homo sapiens, U-937, 72 h, read-out: IC50
[25] = Homo sapiens, HeLa, 72 h, read-out: IC50
[26] = Homo sapiens, A549, 72 h, read-out: IC50

Question: For `CC(C)(C)c1[nH]cnc1/C=c1\[nH]c(=O)/c(=C/c2ccccc2)[nH]c1=O` [PLINABULIN], which Activity [1] is on record?
Answer: Its Activity is 6.44%.

Question: What about the IC50 [2, 19] of the same compound?
Answer: Its IC50 is 0.014 µM.

Question: What about the IC50 [3, 20] of the same compound?
Answer: The IC50 was 0.0148 µM.

Question: And the Activity [4]?
Answer: The Activity was 31.1%.

Question: What about the Activity [5] of the same compound?
Answer: Its Activity is 31.8%.

Question: What about the IC50 [6, 21] of the same compound?
Answer: The IC50 was 0.013 µM.

Question: What about the IC50 [7, 22] of the same compound?
Answer: The IC50 was 0.0063 µM.

Question: And the IC50 [8, 23]?
Answer: Its IC50 is 0.0126 µM.

Question: And the viability at 0.015 µM [9]?
Answer: Its viability at 0.015 µM is 66.9%.

Question: What about the viability at 0.015 µM [10] of the same compound?
Answer: The viability at 0.015 µM was 58.3%.

Question: What about the IC50 [11, 24] of the same compound?
Answer: The IC50 was 0.0068 µM.

Question: What about the IC50 [12, 25] of the same compound?
Answer: The IC50 was 0.0084 µM.

Question: What about the Activity [13] of the same compound?
Answer: The Activity was 1.99%.

Question: What about the Activity [14] of the same compound?
Answer: The Activity was 38.6%.

Question: And the Activity [15]?
Answer: The Activity was 11.7%.

Question: And the Activity [16]?
Answer: Its Activity is 19.3%.

Question: And the IC50 [17, 26]?
Answer: The IC50 was 0.0055 µM.

Question: What about the Activity [18] of the same compound?
Answer: The Activity was 1.13%.

Question: `C=CCn1c(=O)/c(=C/CCCCCCCCC)[nH]c(=O)/c1=C/c1ccc(OC)cc1` was tested. Which IC50 ([2]; du-145) did it give?
Answer: Its IC50 is “Not Active”.

Question: And the IC50 [3, 20]?
Answer: The IC50 was 5.3 µM.

Question: What about the IC50 ([6]; ht-29) of the same compound?
Answer: Its IC50 is “Not Active”.

Question: What about the IC50 [7, 22] of the same compound?
Answer: Its IC50 is 11.7 µM.

Question: And the IC50 ([8]; mcf7)?
Answer: The IC50 was “Not Active”.

Question: And the IC50 [11, 24]?
Answer: Its IC50 is 10.3 µM.

Question: And the IC50 ([12]; hela)?
Answer: The IC50 was “Not Active”.

Question: What about the IC50 ([17]; a549) of the same compound?
Answer: The IC50 was “Not Active”.

Question: With `C=CCn1c(=O)/c(=C/CC)[nH]c(=O)/c1=C/c1ccc(OC)cc1` as the compound, how does the IC50 [2, 19] read?
Answer: Its IC50 is 8.9 µM.

Question: And the IC50 ([3]; hl-60)?
Answer: The IC50 was “Not Active”.

Question: What about the IC50 [6, 21] of the same compound?
Answer: Its IC50 is 4.2 µM.

Question: What about the IC50 [7, 22] of the same compound?
Answer: Its IC50 is 2.1 µM.

Question: And the IC50 [8, 23]?
Answer: Its IC50 is 4.3 µM.

Question: And the IC50 [11, 24]?
Answer: The IC50 was 1.48 µM.

Question: What about the IC50 [12, 25] of the same compound?
Answer: The IC50 was 4.6 µM.

Question: And the IC50 [17, 26]?
Answer: The IC50 was 6.1 µM.

Question: With `C=CCn1c(=O)/c(=C/CCCCC)[nH]c(=O)/c1=C/c1ccccc1OC` as the compound, how does the IC50 [2, 19] read?
Answer: Its IC50 is 10.7 µM.

Question: What about the IC50 [3, 20] of the same compound?
Answer: Its IC50 is 13.4 µM.

Question: What about the IC50 [6, 21] of the same compound?
Answer: Its IC50 is 7.4 µM.

Question: What about the IC50 [7, 22] of the same compound?
Answer: The IC50 was 2.6 µM.

Question: What about the IC50 [8, 23] of the same compound?
Answer: The IC50 was 6.9 µM.

Question: What about the IC50 [11, 24] of the same compound?
Answer: Its IC50 is 1.9 µM.

Question: What about the IC50 [12, 25] of the same compound?
Answer: The IC50 was 5.7 µM.

Question: And the IC50 [17, 26]?
Answer: The IC50 was 8.7 µM.

Question: How did the IC50 ([2]; du-145) turn out when `C=CCn1c(=O)/c(=C/CCCCCCCCCCCCCCC)[nH]c(=O)/c1=C/c1ccccc1OC` was run?
Answer: The IC50 was “Not Active”.

Question: And the IC50 ([3]; hl-60)?
Answer: The IC50 was “Not Active”.

Question: What about the IC50 ([6]; ht-29) of the same compound?
Answer: Its IC50 is “Not Active”.

Question: What about the IC50 ([7]; k562) of the same compound?
Answer: Its IC50 is “Not Active”.

Question: And the IC50 ([8]; mcf7)?
Answer: Its IC50 is “Not Active”.

Question: And the IC50 ([11]; u-937)?
Answer: Its IC50 is “Not Active”.

Question: And the IC50 ([12]; hela)?
Answer: Its IC50 is “Not Active”.

Question: And the IC50 ([17]; a549)?
Answer: Its IC50 is “Not Active”.

Question: Which results are given for `C=CCn1c(=O)/c(=C/CCC)[nH]c(=O)/c1=C/c1cccc(OC)c1`?
Answer: IC50 ([2]; du-145): Not Active; IC50 ([3]; hl-60): Not Active; IC50 ([6]; ht-29): Not Active; IC50 ([7]; k562): Not Active; IC50 ([8]; mcf7): Not Active; IC50 ([11]; u-937): Not Active; IC50 ([12]; hela): Not Active; IC50 ([17]; a549): Not Active
